One series has as its system mice. The experiment in a line: Immunogenicity of di- and tetrapalmitoylated conjugates in liposomes: antibody detection by Dot Blot and antibody titer. The series is classed as in vivo. The text has this: In order to further understand the degree of immunogenicity of the conjugates according to the invention, two types of conjugates were produced and tested. The first type of conjugate corresponds to the synthetic sequences of the peptides derived from the extracellular loops of the murine P-170 protein, covalently coupled to four molecules of fatty acid containing a carbon chain of between C12 and C24, per molecule of peptide. The second type of conjugate is made up of a peptide coupled only to two molecules of fatty acid. This study is illustrated by means of a specific example of dipalmitoylated and tetrapalmitoylated conjugates.
Table III describes the sequences of the di- and tetrapalmitoylated conjugates corresponding to loops 1, 2 and 4 of the murine P-170 protein and also their immunogenic capacity measured through the detection of antibodies by the Dot Blot technique and also the antibody titer by fluorescence units. […] The mpp4 and mpp2 conjugates engender an immune response with an antibody titer in the region of 400 fluorescence units. […] In fact, the synthesis of this loop is very hard and long since there are many possible chemical terminations, or chemical rebridging which could explain the lack of immune response of this first batch of peptides. For the animal immunization trials, a further synthesis of the peptides, in particular of loop 1, was therefore carried out.
The conjugates according to the invention serving as antigenic molecules, diluted in PBS, are firstly deposited at ambient temperature onto nitrocellulose membranes. After 30 minutes, these antigenic molecules are blocked with 3 ml of a solution containing PBS-5% skim milk. The membranes are incubated for 2 hours at ambient temperature, without washing, with 24 μl of murine serum prediluted volume-for-volume with PBS, in 2 ml of PBS containing 1% of skim milk and 0.1% of tween 20. Said murine serum was taken during a period of 15 to 45 days after the third immunization. After three washes in PBS-1% skim milk-0.1% tween 20, the membranes are sequentially incubated for 1 hour at ambient temperature, in 3 ml of PBS-1% skim milk-0.1% tween 20 containing the peroxydase anti-mouse secondary antibody diluted to 1/3000, and then after 2 washes, in 3 ml of PBS-1% skim milk-0.1% tween 20. The membranes are then washed once for 10 minutes in PBS alone and kept in a refrigerator at 4° C. overnight, in 500 μl of PBS. A chemoluminescence peroxydase substrate (ECL™ kit, […] Pharmacie Biotech) is deposited at the surface of the membranes (0.125 ml/cm^2), and left for one minute, and the membranes are then drained off and placed in a “cold” cassette between 2 films of Saran®. The membranes are immediately exposed by autoradiography, the emitted light resulting from the reaction of oxidation of the luminol by the peroxydase being collected on KODAK X-OMAT films with varying times from a few minutes to 1 hour, depending on the strength of the signal. The antibody titers are estimated using a densitometer suitable for the above system. The sensitivity of the chemoluminescence reaction has a threshold for detection of the induced antibodies evaluated at 0.2 ng/ml under the experimental conditions.

The next series relates to cancer cells. Conditions: by means of an increase in the invasive potential of the cancer cells; cited from earlier work.
The next series relates to B6D2F1 mice. Briefly: Immune response in vivo in B6D2F1 mice immunized with the vaccine preparations (anti-mpp1, mpp2, mpp4 antibody isotypes, Dot Blot). The conditions noted are these: further synthesis of the peptide; compared with mpp2 and mpp4. As for the experimental part: The mice were immunized three times, two weeks apart, by intraperitoneal injection with 200 μl of vaccine composition. This experimental protocol is carried out for the four preparations on groups of nine B6D2F1 mice (Iffa Credo, L'Arbresle, France).
To quantify by Dot Blot the various immunoglobulins induced by the immunization, 100 μl of blood were taken, from each mouse, from the retroorbital sinus one day before the booster and 15 days after the final injection. Each blood sample was then centrifuged and the serum isolated was used for the quantification.
The conjugates according to the invention serving as antigenic molecules, diluted in PBS, are firstly deposited at ambient temperature onto nitrocellulose membranes. After 30 minutes, these antigenic molecules are blocked with 3 ml of a solution containing PBS-5% skim milk. The membranes are incubated for 2 hours at ambient temperature, without washing, with 24 μl of murine serum prediluted volume-for-volume with PBS, in 2 ml of PBS containing 1% of skim milk and 0.1% of tween 20. Said murine serum was taken during a period of 15 to 45 days after the third immunization. […] The sensitivity of the chemoluminescence reaction has a threshold for detection of the induced antibodies evaluated at 0.2 ng/ml under the experimental conditions. […]

The next series deals with P388R cells. The conditions noted are these: mice, same cancer model, 100 mg/kg/day (Pierré et al. 1992); cited from earlier work.
For series [1] the following is noted: trials for treatment of multidrug resistance (Stupp et al. 1998); cited from earlier work.
[2] abbreviates: mice injected with liposomes containing the conjugate, first peptide synthesis.

Ends that are not written are not given here.

“G-KVLTSFTNKELQAYAK-G-K-NH2 (GKVLTSFTNKELQAYAKGK-NH2; also: two palmitic acids; listed as Mus musculus) [mpp′2]” had an Ac titer fluorescence with mice (setting [2]) below 10 fluorescence units.
For `OCCN1CCN(CC/C=C2\c3ccccc3Sc3ccc(C(F)(F)F)cc32)CC1` [trans-flupenthixol], the effect on mortality result in the series on cancer cells is recorded as “can accelerate mortality”.
Take “K-G-GNMTDSFTKAEASILPSITNQSGPNSTLIISNSSLEEE-G-K-K-NH2 (KGGNMTDSFTKAEASILPSITNQSGPNSTLIISNSSLEEEGKK-NH2; also: four palmitic acids; listed as Mus musculus) [mpp1]”: in the series on mice (setting [2]), the Ac titer fluorescence is reported as below 10 fluorescence units and the “Detection of antibodies by Dot Blot” value was “no antibody was detected”. The “antibody titers induced by the conjugate” value in the series with B6D2F1 mice is “significant and comparable in value to the antibody titers detected for the mpp2 and mpp4 conjugates”.
Consider `C=CCNc1nc(NCC=C)nc(N2CCC(NCC(c3ccc(F)cc3)c3ccc(F)cc3)CC2)n1` [S9788, 6-[4-[2,2-di-(4-fluorophenyl)ethylamino]-1-piperidinyl]-N,N′-di-2-propenyl-1,3,5-triazine-2,4-diamine], for which the increase in survival with P388R cells is 49%. Besides, the “toxicity limiting use in clinical trials” value in series [1] is “cardiac toxicity, ventricular arrhythmia and torsade de pointe”.
On to “G-SRDDDMETKRQNEN-G-K-NH2 (GSRDDDMETKRQNENGK-NH2; also: two palmitic acids; listed as Mus musculus) [mpp′4]”, for which the Ac titer fluorescence in the series on mice (setting [2]) is 100 fluorescence units. The “antibody titer relative to the titer induced by mpp4” value in the series with mice (same sequence with two versus four palmityl residues) was “four times lower”.
